This assay can be described thus: In vitro liposome fractionation assay. It is filed as binding. As to conditions: 5 μg protein, 15 minute incubation, centrifugation, SDS-PAGE. As to the method:
FIG. 51. Recombinant tTG can associate with lipid vesicles lacking any protein content. Synthetic liposomes were prepared by extrusion and then equal amounts of this preparation were combined with either 5 μg recombinant tTG (tTG WT) or 5 μg bovine serum albumin (BSA). After a 15 minute incubation, the liposomes were pelleted by centrifugation, and the resulting supernatant (Sup) and liposome (Pellet) fractions were resolved by SDS-PAGE. The gel was then stained with Quick Blue to detect the proteins. A lane containing recombinant tTG (Rec. tTG WT) was included as a standard.
To obtain the results depicted in FIG. 51, the following procedures were used. In vitro liposome fractionation assays—Synthetic liposomes were prepared from a lipid mixture containing 35% phosphatidylethanolamine, 25% phosphatidylserine, 5% phosphatidylinositol, and 35% cholesterol re-suspended in TBSM buffer (20 mM Tris, pH 7.5, 150 mM NaCl, and 2 mM MgCl2). The lipids were extruded through an 8 micron filter, pelleted by centrifugation at 13,000 rpm for 15 minutes, and re-suspended in TBSM buffer. Equal amounts of the lipid preparation were then incubated with either recombinant wild-type tTG or BSA for 15 minutes, followed by centrifugation at 13,000 rpm for 10 minutes at room temperature. […]

The record followed here is patent US20140079717A1, “Compositions and Methods to Prevent Cell Transformation and Cancer Metastasis” (CORNELL UNIVERSITY, priority 2011, published 2014).

For the substance bovine serum albumin [BSA], the “protein pelleted with synthetic liposomes” value was “only weakly pelleted”.
